For nine compounds, IC50 results are on record in patent US20240148821A1, “PHARMACEUTICAL USE OF CYCLIC PEPTIDE COMPOUND” (CHUGAI SEIYAKU KABUSHIKI KAISHA, priority 2021, published 2024).

Each structure is given as a SMILES string. Numbered stars: 1 amine (or outer) side, 2 acyl side, 3 side chain; on linkers, the order of the positions; unused ones are H or OH. Bridge positions count the residues as written; N and C are the ends. Square brackets hold non-standard residues; d marks the D form. Peptide text beside a SMILES is read from it. * marks the point of attachment. hPhe(3-Cl-4-CF3) = N[C@@H](CCc1ccc(C(F)(F)F)c(Cl)c1)C(=O)O; NMePhe(4-Cl) = CN[C@@H](Cc1ccc(Cl)cc1)C(=O)O; NMePhe(2-CN) = CN[C@@H](Cc1ccccc1C#N)C(=O)O; NMePhe(4-Me) = CN[C@@H](Cc1ccc(C)cc1)C(=O)O; NMedβ3hAla = C[C@H](CC(=O)[*:2])N(C)[*:1]; NMeAla(cPent) = CN[C@@H](CC1CCCC1)C(=O)O; Phe(3-I) = N[C@@H](Cc1cccc(I)c1)C(=O)O; NMeY = CN[C@@H](Cc1ccc(O)cc1)C(=O)O; NMeCha = CN[C@@H](CC1CCCCC1)C(=O)O; NMeAoc(2) = CCCCCC[C@H](NC)C(=O)O; Gly(N-(CH2)2OEt) = CCOCCNCC(=O)O; NMeChg = CN[C@H](C(=O)O)C1CCCCC1; NMeF = CN[C@@H](Cc1ccccc1)C(=O)O; NMeI = CC[C@H](C)[C@H](NC)C(=O)O; hPhe = N[C@@H](CCc1ccccc1)C(=O)O; NMeD = CN[C@@H](CC(=O)O)C(=O)O; NMeL = CN[C@@H](CC(C)C)C(=O)O; Oxazolidin(3-yl) = C1CN(*)CO1; Ahp(2) = CCCCC[C@H](N)C(=O)O; NMeV = CN[C@H](C(=O)O)C(C)C; d(β3hA) = C[C@@H](N)CC(=O)O; NMeA = CN[C@@H](C)C(=O)O; NMeAib = CNC(C)(C)C(=O)O; Nle = CCCC[C@H](N)C(=O)O; Piperidide = C1CCN(*)CC1; Ac5c = NC1(C(=O)O)CCCC1; Aze = O=C(O)[C@@H]1CCN1; Sar = CNCC(=O)O

The test relates to Human pancreatic cancer cell line AsPC-1 (G12D mutation Kras). Briefly: AsPC-1 cell growth inhibition (AsPC-1 CGI). Format: cell-based. To be noted: read-out: AsPC-1 cell growth inhibition, 50% growth inhibitory concentration (IC50 value); 96 hours, CellTiter-Glo, values classified in ranges. A general note: ATP-based viability assays read luminescence as a measure of living cells.
Experimental: Test compounds were serially dilated with dimethyl sulfoxide, and 200 nL was then dispensed to a U-bottom 96-well plate using Labcyte Echo. […] The cell suspension was dispensed to a. plate containing a test compound at 100 μL per well and incubated at 37° C. in a 5% carbon dioxide gas incubator. 96 hours later, 80 μL of CellTiter-Glo (Promega) was added to each well and fluorescence was measured.
For `CC[C@H](C)[C@@H]1NC(=O)[C@H](C)N(C)C(=O)C[C@@H](C)NC(=O)[C@H](C(C)C)N(C)C(=O)[C@H](Cc2ccccc2)N(C)C(=O)[C@H](CC(C)C)N(C)C(=O)[C@H](CCc2ccc(C(F)(F)F)c(Cl)c2)NC(=O)CN(C)C(=O)[C@H](Cc2ccc(Cl)cc2)N(C)C(=O)[C@@H]2CCN2C(=O)CN(C)C1=O` [Compound 994] (cyclo([Aze][NMePhe(4-Cl)][Sar][hPhe(3-Cl-4-CF3)][NMeL][NMeF][NMeV][d(β3hA)][NMeA]I[Sar])), the IC50 was > 500 nM.
In the case of `CC[C@H](C)[C@@H]1NC(=O)[C@H](CC(C)C)N(C)C(=O)C[C@@H](C(=O)N2CCOC2)NC(=O)[C@H]([C@@H](C)CC)N(C)C(=O)C2(CCCC2)NC(=O)[C@@H]2CCCN2C(=O)[C@H](CCc2ccc(C(F)(F)F)c(Cl)c2)NC(=O)CN(C)C(=O)[C@H](CC2CCCCC2)N(C)C(=O)CN(C)C(=O)CN(C)C1=O` [Compound 1247] ([NMeL]I[Sar][Sar][NMeCha][Sar][hPhe(3-Cl-4-CF3)]P[Ac5c][NMeI]D-{Oxazolidin(3-yl)}; lactam N-11), the IC50 is > 500 nM.
With `CCCC[C@@H]1NC(=O)[C@H](Cc2cccc(I)c2)NC(=O)CN(C)C(=O)[C@H](CC2CCCC2)N(C)C(=O)[C@@H]2CCN2C(=O)[C@H](C)N(C)C(=O)[C@H]([C@@H](C)CC)NC(=O)[C@H](CC(C)C)N(C)C(=O)C[C@@H](C(=O)N2CCCCC2)N(C)C(=O)[C@H](CC(C)C)NC(=O)C(C)(C)N(C)C1=O` [Compound 1432] ([NMeL]I[NMeA][Aze][NMeAla(cPent)][Sar][Phe(3-I)][Nle][NMeAib]L[NMeD]-Piperidide; lactam N-11) the figure was > 500 nM; with `CC[C@H](C)[C@@H]1NC(=O)[C@H](CC(C)C)N(C)C(=O)C[C@@H](C)N(C)C(=O)[C@H](C(C)C)N(C)C(=O)C2(CCCC2)NC(=O)[C@@H]2CCCN2C(=O)[C@H](CCc2ccc(C(F)(F)F)c(Cl)c2)NC(=O)CN(C)C(=O)[C@H](Cc2ccccc2C#N)N(C)C(=O)CN(C)C(=O)CN(C)C1=O` [Compound 357] (cyclo([Ac5c][NMeV][NMedβ3hAla][NMeL]I[Sar][Sar][NMePhe(2-CN)][Sar][hPhe(3-Cl-4-CF3)]P)), > 500 nM.
The same measure for `CCCCCC[C@H]1C(=O)N[C@@H]([C@@H](C)CC)C(=O)N(C)CC(=O)N2CC[C@H]2C(=O)N(C)[C@@H](Cc2ccc(OC)cc2)C(=O)N(C)CC(=O)N[C@@H](Cc2cccc(I)c2)C(=O)N[C@@H](CCCC)C(=O)N(C)C(C)(C)C(=O)N[C@@H](CC(C)C)C(=O)N(C)[C@H](C(=O)N2CCCCC2)CC(=O)N1C` [Compound 1417] ([NMeAoc(2)]I[Sar][Aze][NMeY](Me)[Sar][Phe(3-I)][Nle][NMeAib]L[NMeD]-Piperidide; lactam N-11): > 500 nM; for `CC[C@H](C)[C@@H]1NC(=O)[C@H](C)N(C)C(=O)C[C@@H](C)NC(=O)[C@H](C(C)C)N(C)C(=O)C2(CCCC2)NC(=O)[C@@H]2CCCN2C(=O)[C@H](CCc2ccc(C(F)(F)F)c(Cl)c2)NC(=O)CN(C)C(=O)[C@H](Cc2ccccc2)N(C)C(=O)[C@@H]2CCCN2C(=O)CN(C)C1=O` [Compound 1778] (cyclo([Ac5c][NMeV][d(β3hA)][NMeA]I[Sar]P[NMeF][Sar][hPhe(3-Cl-4-CF3)]P)): > 500 nM.
With `CCCCC[C@@H]1NC(=O)[C@H](CC(C)C)N(C)C(=O)C[C@@H](C(=O)N2CCCCC2)N(C)C(=O)[C@H](C2CCCCC2)N(C)C(=O)C2(CCCC2)NC(=O)[C@@H]2CCCN2C(=O)[C@H](CCc2ccc(C(F)(F)F)c(Cl)c2)NC(=O)CN(C)C(=O)[C@H](CC2CCCCC2)N(C)C(=O)CN(C)C(=O)CN(C)C1=O` [Compound 1692] ([NMeL][Ahp(2)][Sar][Sar][NMeCha][Sar][hPhe(3-Cl-4-CF3)]P[Ac5c][NMeChg][NMeD]-Piperidide; lactam N-11) the figure was > 500 nM; with `CC[C@H](C)[C@@H]1NC(=O)[C@H](CC(C)C)N(C)C(=O)C[C@@H](C(=O)N2CCCCC2)N(C)C(=O)[C@H](CC(C)C)NC(=O)C(C)(C)N(C)C(=O)[C@H](CCc2ccccc2)NC(=O)[C@H](Cc2cccc(I)c2)NC(=O)CN(C)C(=O)[C@H](Cc2ccc(C)cc2)N(C)C(=O)[C@@H]2CCN2C(=O)CN(C)C1=O` [Compound 442] ([NMeL]I[Sar][Aze][NMePhe(4-Me)][Sar][Phe(3-I)][hPhe][NMeAib]L[NMeD]-Piperidide; lactam N-11), > 500 nM.
Consider `CCOCCN1CC(=O)N(C)CC(=O)N(C)[C@@H](CC2CCCCC2)C(=O)N(C)CC(=O)N[C@@H](CCc2ccc(C(F)(F)F)c(Cl)c2)C(=O)N2CCC[C@H]2C(=O)NC2(CCCC2)C(=O)N(C)[C@@H](C(C)C)C(=O)N[C@H](C)CC(=O)N(C)[C@@H](CC(C)C)C(=O)N[C@@H]([C@@H](C)CC)C1=O` [Compound 329] (cyclo([Ac5c][NMeV][d(β3hA)][NMeL]I[Gly(N-(CH2)2OEt)][Sar][NMeCha][Sar][hPhe(3-Cl-4-CF3)]P)), for which the IC50 was > 500 nM.
